In brackets after ≈: the same amount, converted by molar mass.
How the values were obtained:
[1] = system: HeLa; assay: In vitro anti-proliferative activity against human tumor cell lines (HeLa); type: cell-based; conditions: Cervical carcinoma, 72 hours
Description: (§1) In vitro anti-proliferative activity against human tumor cell lines
(§2) Test Compound: 5-ethynyl-1-β-D-ribofuranosylimidazole-4-carboxamide
(§3) A variety of human tumor cell lines are suspended in media specified according to the species of the cell lines to predetermined cell concentrations as shown in the following Table.
(§4) 1 ml of the resulting cell suspension is seeded into each well of a 24 multi-well plate and incubated in a 5% CO2 -incubator at 37° C. for 24 hours. The culture medium is then replaced by a medium containing no test compound or by an appropriate amount of a serially diluted test compound solution. […] The number of the cells in each well is counted with a Coulter counter (Model ZB, Coulter Electronics), and the growth inhibition percent (%) of the cells at each concentration of a test compound is determined by the following equation: [formula] Tx: Number of the cells in a well containing a test compound as counted upon completion of the incubation (cells/ml) […] Cx: Number of the cells in a well containing no test compound as counted upon completion of the incubation (cells/ml)
(§5) Co: Number of the cells in a well containing no test compound as counted at the initiation of the incubation (cells/ml) […]

[2] = system: PC-3; assay: In vitro anti-proliferative activity against human tumor cell lines (PC-3); type: cell-based; conditions: PC-3, Prostate adenocarcinoma, 72 hours
Description: as §1, §2, §3, §4, §5

[3] = system: sarcoma 180; assay: In vivo antitumor activity against sarcoma 180 intracutaneously implanted into BALB/c mice; design: species or system mouse; key to Tumor growth rate (Rt): R = tumor volume at time / tumor volume on day 8 (A/A8); conditions: for antitumor activity: i.v.
Description: In vivo antitumor activity against sarcoma 180 intracutaneously implanted into BALB/c mice
Three million (3×10^6) Sarcoma 180 cells are intracutaneously implanted at the ventral site of BALB/c mice (male, 5 weeks old). Eight days after the implantation when the tumor volume reached 200 to 300 mm^3, the mice are divided into groups (6 mice/group), and the treatment with a test drug was started. The test drug is dissolved in distilled water and intravenously administered to the mice at a rate of 0.1 ml per 10 g of the body weight thereof. In accordance with two different schedules, 5-ethynyl01β-D-ribofuranosylimidazole-4-carboxamide is administered once or three times, i.e., once at a dose of 250 mg/kg on day 8 (single-dose group) or three times at a dose of 125 mg/kg on days 8, 12 and 16 (multiple-dose group).
Each mouse is weighed, and the width (a mm) and length (b mm) of the tumor thereof are measured twice a week to determine the tumor volume (A mm^3) from the following equation: […]
Subsequently, the tumor growth rate (R) is determined as follows on the basis of the tumor volume (A8) on day 8 after the implantation of the tumor cells :
R: Tumor growth rate after a predetermined period from the tumor implantation
A: Tumor volume after a predetermined period from the tumor implantation
A8 : Tumor volume as determided 8 days after the tumor implantation
T/C(%) is further obtained from the following equation by comparison between the tumor growth rate in the test group (Rt) and that in the control group (Rc):
Single-dose group: 250 mg/kg of the drug was intravenously administered o
day 8 after the tumor implantation.
Multipledose group: 125 mg/kg of the drug was intravenously administered
on days 8, 12 and 16 after the tumor implantation.

[4] = system: T24; assay: In vitro anti-proliferative activity against human tumor cell lines (T24); type: cell-based; conditions: T-24, T24, Bladder trasitional-cell carcinoma, 72 hours
Description: as §1, §2, §3, §4, §5

[5] = system: Mouse lymphoma cell line P388; assay: In vitro anti-proliferative activity against mouse tumor cell lines, Test Method 2 (P388); type: cell-based; conditions: P388, 48 hours, 37° C.
Description: In vitro anti-proliferative activity against mouse tumor cell lines
1. Mouse lymphoma cell line P388 or mouse sarcoma 180 is suspended in RPMI1640 medium supplemented with 10% fetal bovine serum and 2 μM 2-hydroxyethyl disulfide to a concentration of 10^5 cells/ml. Test compounds are serially diluted with the same medium.
2. 0.5 ml of the cell suspension thus obtained is admixed with 0.5 ml of the medium or the test compound solution, and the mixture is incubated in a 5% CO2 -incubator at 37° C. for 48 hours. The incubation is carried out in glass culture tubes.
3. At the end of incubation, the number of the cells in each tube is counted with a Coulter counter (Model ZB, Coulter Electronics), and the growth inhibition percent (%) is calculated from the same equation as in Test Method 1.
4. The IC50 value is obtained as in Test Method I.

[6] = multiple-dose group, 125 mg/kg i.v. days 8, 12, 16, day 8 after implantation
[7] = multiple-dose group, 125 mg/kg i.v. days 8, 12, 16, day 12
[8] = multiple-dose group, 125 mg/kg i.v. days 8, 12, 16, day 15, * = P < 0.05 vs control
[9] = multiple-dose group, 125 mg/kg i.v. days 8, 12, 16, day 19, * = P < 0.05 vs control
[10] = multiple-dose group, 125 mg/kg i.v. days 8, 12, 16, day 22, * = P < 0.05 vs control
[11] = multiple-dose group, 125 mg/kg i.v. days 8, 12, 16, day 26, * = P < 0.05 vs control
[12] = multiple-dose group, 125 mg/kg i.v. days 8, 12, 16, day 29, * = P < 0.05 vs control
[13] = multiple-dose group, 125 mg/kg i.v. days 8, 12, 16, day 33
[14] = single-dose group, 250 mg/kg i.v. day 8, day 8 after implantation
[15] = single-dose group, 250 mg/kg i.v. day 8, day 12, * = P < 0.05 vs control
[16] = single-dose group, 250 mg/kg i.v. day 8, day 15, * = P < 0.05 vs control
[17] = single-dose group, 250 mg/kg i.v. day 8, day 19, * = P < 0.05 vs control
[18] = single-dose group, 250 mg/kg i.v. day 8, day 22, * = P < 0.05 vs control
[19] = single-dose group, 250 mg/kg i.v. day 8, day 26, * = P < 0.05 vs control
[20] = single-dose group, 250 mg/kg i.v. day 8, day 29, * = P < 0.05 vs control
[21] = single-dose group, 250 mg/kg i.v. day 8, day 33, * = P < 0.05 vs control

## C#Cc1c(C(N)=O)ncn1[C@@H]1O[C@H](CO)[C@@H](O)[C@H]1O [5-ethynyl-1-β-D-ribofuranosylimidazole-4-carboxamide]
[1]
  IC50: 0.3 µg/mL (≈ 1.12 µM)
[2]
  IC50: 0.8 µg/mL (≈ 2.99 µM)
[3]; 125 mg/kg every 4 days 3 times in total
  antitumor activity: remarkable antitumor activity
[3]; [6]
  Body weight: 26 g
  T/C (%): 100%
  Tumor growth rate (Rt): 1.0
[3]; [7]
  Body weight: 26 g
  T/C (%): 81%
  Tumor growth rate (Rt): 1.5
[3]; multiple-dose group, 125 mg/kg i.v. days 8, 12, 16, day 15
  Body weight: 25 g
[3]; [8]
  T/C (%): 51%
  Tumor growth rate (Rt): 1.5
[3]; multiple-dose group, 125 mg/kg i.v. days 8, 12, 16, day 19
  Body weight: 25 g
[3]; [9]
  T/C (%): 45%
  Tumor growth rate (Rt): 1.9
[3]; multiple-dose group, 125 mg/kg i.v. days 8, 12, 16, day 22
  Body weight: 26 g
[3]; [10]
  T/C (%): 37%
  Tumor growth rate (Rt): 2.6
[3]; multiple-dose group, 125 mg/kg i.v. days 8, 12, 16, day 26
  Body weight: 26 g
[3]; [11]
  T/C (%): 39%
  Tumor growth rate (Rt): 4.7
[3]; multiple-dose group, 125 mg/kg i.v. days 8, 12, 16, day 29
  Body weight: 26 g
[3]; [12]
  T/C (%): 42%
  Tumor growth rate (Rt): 7.0
[3]; [13]
  Body weight: 27 g
  T/C (%): 53%
  Tumor growth rate (Rt): 11
[3]; once at a dose of 250 mg/kg
  antitumor activity: remarkable antitumor activity
[3]; [14]
  Body weight: 25 g
  T/C (%): 100%
  Tumor growth rate (Rt): 1.0
[3]; single-dose group, 250 mg/kg i.v. day 8, day 12
  Body weight: 24 g
[3]; [15]
  T/C (%): 65%
  Tumor growth rate (Rt): 1.2
[3]; single-dose group, 250 mg/kg i.v. day 8, day 15
  Body weight: 25 g
[3]; [16]
  T/C (%): 45%
  Tumor growth rate (Rt): 1.3
[3]; single-dose group, 250 mg/kg i.v. day 8, day 19
  Body weight: 25 g
[3]; [17]
  T/C (%): 46%
  Tumor growth rate (Rt): 2.0
[3]; single-dose group, 250 mg/kg i.v. day 8, day 22
  Body weight: 26 g
[3]; [18]
  T/C (%): 34%
  Tumor growth rate (Rt): 2.4
[3]; single-dose group, 250 mg/kg i.v. day 8, day 26
  Body weight: 26 g
[3]; [19]
  T/C (%): 39%
  Tumor growth rate (Rt): 4.7
[3]; single-dose group, 250 mg/kg i.v. day 8, day 29
  Body weight: 26 g
[3]; [20]
  T/C (%): 39%
  Tumor growth rate (Rt): 6.6
[3]; single-dose group, 250 mg/kg i.v. day 8, day 33
  Body weight: 27 g
[3]; [21]
  T/C (%): 45%
  Tumor growth rate (Rt): 9.5
[4]
  IC50: 0.37 µg/mL (≈ 1.38 µM)
[5]
  IC50: 0.16 µg/mL (≈ 0.599 µM)

— patent US5059590A, “Imidazole derivatives, process for production thereof, and use thereof” (Yamasa Shoyu Kabushiki Kaisha, priority 1988, dated 1991)
